{
  "source": "patent US20260000082A1",
  "about": "“STABILIZED LIQUID HERBICIDE FORMULATION OF HIGH-LOAD PYRASULFOTOLE” (ADAMA AGAN LTD., priority 2022, published 2026)",
  "assay": "Solubility of Pyrasulfotole in solvents with and without organic amine at room temp (24° C.)",
  "type": "physicochemical",
  "details": "for increase of solubility: 24° C.",
  "description": "Some of the results are tabulated as follows:\nSolubility of Pyrasulfotole in Dimethyl sulfoxide (DMSO) and in a mixture of Pyrasulfotole with DMSO and amine at room temp (24° C.) was tested.\nSolubility of Pyrasulfotole in Cyclohexanone and in a mixture of Pyrasulfotole with Cyclohexanone and amine at room temp (24° C.) was tested.\nSolubility of Pyrasulfotole in Propylene carbonate and in a mixture of Pyrasulfotole with Propylene carbonate and amine at room temp (24° C.) was tested.",
  "data": [
    {"smiles": "Cc1nn(C)c(O)c1C(=O)c1ccc(C(F)(F)F)cc1S(C)(=O)=O", "note": "[Pyrasulfotole]", "values": [
      {"measurement": "increase of solubility", "setting": "Cyclohexanone/Genamin C-50 66/34 versus Cyclohexanone alone", "result": "about 400%"},
      {"measurement": "increase of solubility", "setting": "DMSO/GENAMIN C-50 66/34 versus DMSO alone", "result": "about 26%"},
      {"measurement": "increase of solubility", "setting": "Propylene carbonate/Genamin C-50 70/30 versus Propylene carbonate alone", "result": "about 620%"},
      {"measurement": "Solubility (%)", "setting": "solvent Cyclohexanone, rate 100, room temp (24° C.)", "result": 8.24, "unit": "%"},
      {"measurement": "Solubility (%)", "setting": "solvent Cyclohexanone/Genamin C-50, rate 66/34, room temp (24° C.)", "result": 32.99, "unit": "%"},
      {"measurement": "Solubility (%)", "setting": "solvent DMSO, rate 100, room temp (24° C.)", "result": 26.98, "unit": "%"},
      {"measurement": "Solubility (%)", "setting": "solvent DMSO/GENAMIN C-50, rate 66/34, room temp (24° C.)", "result": 39.24, "unit": "%"},
      {"measurement": "Solubility (%)", "setting": "solvent Propylene carbonate, rate 100, room temp (24° C.)", "result": 4.59, "unit": "%"},
      {"measurement": "Solubility (%)", "setting": "solvent Propylene carbonate/Genamin C-50, rate 70/30, room temp (24° C.)", "result": 28.57, "unit": "%"}
    ]}
  ]
}
